Among the data in ChEMBL document CHEMBL2417411, “Design and synthesis of novel 2'-hydroxy group substituted 2-pyridone derivatives as anticancer agents” (Eur J Med Chem, 2013) are IC50 and logP values, retold here.

Bounds are passed on as bounds.

One data set relates to MDA-MB-231. Nature of the data set: cells. To be noted: Homo sapiens, MDA-MB-231, 48 h.
The subject of the next data set is SW480. Nature of the data set: cells. Particulars: Homo sapiens, SW480, 48 h.
A short description of another data set: cells. To be noted: Homo sapiens, QGY7701, 48 h.
The next data set in a line: physchem. To be noted: octanol/water.
The test system of the next data set is A549. Nature of the data set: cells. Particulars: Homo sapiens, A549, 48 h.
A further data set relates to HeLa. Nature of the data set: cells. To be noted: Homo sapiens, 48 h.
The subject of another data set is SGC-7901. The experiment in a line: cells. To be noted: Homo sapiens, SGC-7901, 48 h.

Description for A549: Cytotoxicity against human A549 cells after 48 hrs by MTT assay
Description for HeLa: Cytotoxicity against human HeLa cells after 48 hrs by MTT assay
Description for MDA-MB-231: Cytotoxicity against human MDA-MB-231 cells after 48 hrs by MTT assay
Description for SGC-7901: Cytotoxicity against human SGC7901 cells after 48 hrs by MTT assay
Description for SW480: Cytotoxicity against human SW480 cells after 48 hrs by MTT assay
Description for physchem: Lipophilicity, log P of the compound

A word on the IC50: it is the concentration that inhibits the measured activity by half. A high value points to a need for much substance. As a reminder, the logP is a log measure of how a compound divides between an organic and an aqueous phase. A high value points to higher lipophilicity. `COc1ccc(C(=O)c2ccc(=O)n(-c3ccccc3C)c2)c(OCc2cn(Cc3cccc(C)c3)nn2)c1`: the IC50 in the data set with MDA-MB-231 is 0.21 µM; in the data set with SW480, 2.45 µM; in the data set “cells”, 6.38 µM; in the data set on A549, 3.25 µM; in the data set with HeLa, 3.27 µM; in the data set on SGC-7901, above 30 µM. In “physchem”, this compound returned a logP of 4.1.

In the case of `COc1ccc(C(=O)c2ccc(=O)n(-c3ccccc3C)c2)c(OCc2cn(Cc3ccccc3Cl)nn2)c1`, the IC50 in the data set with MDA-MB-231 is 0.38 µM; in the data set with SW480, 0.39 µM; in “cells” it was 4.72 µM; in the data set with A549 it was 0.69 µM; in the data set on HeLa, 1.7 µM; in the data set with SGC-7901, above 30 µM. This compound also yielded a logP in “physchem” of 4.05.

As to `COc1ccc(C(=O)c2ccc(=O)n(-c3ccccc3C)c2)c(OCc2cn(Cc3cccc(O[N+](=O)[O-])c3)nn2)c1`, the IC50 with MDA-MB-231 came to 1.39 µM; in the data set on SW480, 4.42 µM; in the data set “cells”, 3.01 µM; with A549 it was 3.61 µM; with HeLa, 3.12 µM; in the data set with SGC-7901 it was 0.55 µM. The compound further showed a logP in the data set “physchem” of 3.77.

As for `COc1ccc(C(=O)c2ccc(=O)n(-c3ccccc3C)c2)c(OC(=O)c2ccc(Cl)cc2)c1`, the half-maximal inhibitory concentration (IC50) was 1.84 µM with MDA-MB-231; 1.33 µM in the data set on SW480; above 30 µM in “cells”; 5.23 µM in the data set with A549; 1.56 µM in the data set on HeLa; 5.79 µM with SGC-7901. Further, the logP in “physchem” was 4.27.

Take `CCCCC(CC)C(=O)Oc1cc(OC)ccc1C(=O)c1ccc(=O)n(-c2ccccc2C)c1` (centres undefined): the IC50 is 0.37 µM in the data set on MDA-MB-231; 3.35 µM in the data set with SW480; above 30 µM in the data set “cells”; 2.95 µM in the data set with A549; 2.28 µM in the data set on HeLa; 1.48 µM in the data set with SGC-7901. The same compound showed a log partition coefficient (logP) in the data set “physchem” of 5.04.

Regarding `COc1ccc(C(=O)c2ccc(=O)n(-c3ccccc3C)c2)c(OCc2cn(Cc3ccccc3)nn2)c1`, the IC50 is above 30 µM in the data set with MDA-MB-231; 2.51 µM in the data set with SW480; above 30 µM in the data set “cells”; 3.64 µM in the data set on A549; 4.23 µM in the data set on HeLa; 1.25 µM with SGC-7901. The log partition coefficient (logP) in “physchem” turned out to be 3.88.

Consider `COc1ccc(C(=O)c2ccc(=O)n(-c3ccccc3C)c2)c(OC(=O)c2ccccc2)c1`, for which the IC50 is 1.18 µM in the data set on MDA-MB-231; 3.12 µM in the data set on SW480; above 30 µM in the data set “cells”; 4.47 µM in the data set with A549; 7.29 µM with HeLa; 1.42 µM in the data set on SGC-7901. For the same compound, in “physchem”, the logP amounted to 4.09.

For the compound `COc1ccc(C(=O)c2ccc(=O)n(-c3ccccc3C)c2)c(OC(=O)c2ccc(C)cc2)c1`, the IC50 in the data set with MDA-MB-231 was 0.54 µM; with SW480, 2.31 µM; in “cells”, above 30 µM; with A549 it was 3.24 µM; in the data set with HeLa, 3.27 µM; in the data set with SGC-7901 it was 3.96 µM. For the same compound, the logP in the data set “physchem” was found to be 4.32.

For the compound `COc1ccc(C(=O)c2ccc(=O)n(-c3ccccc3C)c2)c(OCc2cn(Cc3ccccc3F)nn2)c1`, the concentration for half-maximal inhibition (IC50) was 1.14 µM in the data set on MDA-MB-231; 3.28 µM in the data set with SW480; above 30 µM in the data set “cells”; 3.96 µM in the data set with A549; 4.83 µM in the data set on HeLa; above 30 µM in the data set on SGC-7901. In addition, the log partition coefficient (logP) in “physchem” came to 3.59.

In the case of `COc1ccc(C(=O)c2ccc(=O)n(-c3ccccc3C)c2)c(OCc2cn(Cc3ccc(F)cc3)nn2)c1`, the IC50 with MDA-MB-231 stood at 1.46 µM; in the data set with SW480 it was 2.37 µM; in “cells” it was 5.44 µM; in the data set with A549 it was 0.48 µM; in the data set with HeLa, 8.48 µM; in the data set on SGC-7901, 0.19 µM. For the same compound, the logP in the data set “physchem” is 3.59.

Consider `COc1ccc(C(=O)c2ccc(=O)n(-c3ccccc3C)c2)c(OCc2cn(Cc3ccccc3C)nn2)c1`, for which the 50% inhibitory concentration (IC50) with MDA-MB-231 was 1.34 µM; in the data set with SW480 it was 3.07 µM; in “cells”, 4.63 µM; in the data set with A549, 3.21 µM; with HeLa it was 4.86 µM; in the data set with SGC-7901, above 30 µM. In “physchem”, the logP was determined as 4.1.

As to `COc1ccc(C(=O)c2ccc(=O)n(-c3ccccc3C)c2)c(OCc2cn(Cc3ccc(C#N)cc3)nn2)c1`, the IC50 is 0.43 µM in the data set on MDA-MB-231; above 30 µM with SW480; 2.87 µM in the data set “cells”; 4.31 µM in the data set with A549; 0.89 µM with HeLa; above 30 µM with SGC-7901. This compound also yielded a logP in “physchem” of 3.6.

In the case of `COc1ccc(C(=O)c2ccc(=O)n(-c3ccccc3C)c2)c(OCc2cn(Cc3ccccc3Br)nn2)c1`, the IC50 in the data set with MDA-MB-231 was above 30 µM; with SW480, 3.62 µM; in the data set “cells”, above 30 µM; with A549 it was 5.35 µM; in the data set with HeLa, 5.22 µM; in the data set with SGC-7901, 1.23 µM. This compound also displayed a lipophilicity (logP) in the data set “physchem” of 4.05.

Consider `COc1ccc(C(=O)c2ccc(=O)n(-c3ccccc3C)c2)c(OC(=O)Cc2ccc(Cl)cc2)c1`, for which the IC50 with MDA-MB-231 came to 2.44 µM; with SW480, 0.58 µM; in the data set “cells”, 5.68 µM; in the data set with A549 it was 0.49 µM; with HeLa, 0.58 µM; with SGC-7901, 3.48 µM. In the data set “physchem”, this compound displayed a logP of 4.4.

On to `COc1ccc(C(=O)c2ccc(=O)n(-c3ccccc3C)c2)c(OC(C)=O)c1`, for which the half-maximal inhibitory concentration (IC50) is above 30 µM in the data set with MDA-MB-231; above 30 µM in the data set on SW480; above 30 µM in “cells”; above 30 µM with A549; above 30 µM with HeLa; 6.21 µM with SGC-7901. This compound registered a logP in the data set “physchem” of 2.7.

For `COc1ccc(C(=O)c2ccc(=O)n(-c3ccccc3C)c2)c(OCc2cn(Cc3cccc(Cl)c3)nn2)c1`, the half-maximal inhibitory concentration (IC50) was 0.38 µM in the data set with MDA-MB-231; 1.37 µM in the data set with SW480; above 30 µM in the data set “cells”; 1.53 µM in the data set with A549; 3.71 µM with HeLa; above 30 µM in the data set on SGC-7901. Further, the logP in “physchem” was found to be 4.05.

As to `CCOC(=O)Oc1cc(OC)ccc1C(=O)c1ccc(=O)n(-c2ccccc2C)c1`, the IC50 in the data set on MDA-MB-231 is above 30 µM; with SW480, 4.56 µM; in the data set “cells” it was above 30 µM; in the data set on A549, 5.83 µM; in the data set on HeLa it was 7.44 µM; with SGC-7901 it was 3.35 µM. The compound also returned a log partition coefficient (logP) in “physchem” of 2.95.

As for `COc1ccc(C(=O)c2ccc(=O)n(-c3ccccc3C)c2)c(OCc2cn(Cc3cccc(F)c3)nn2)c1`, the IC50 is 1.24 µM in the data set with MDA-MB-231; 2.23 µM with SW480; above 30 µM in the data set “cells”; 3.06 µM with A549; 5.75 µM in the data set on HeLa; above 30 µM in the data set with SGC-7901. The lipophilicity (logP) in “physchem” came out at 3.59.

In the case of `COc1ccc(C(=O)c2ccc(=O)n(-c3ccccc3C)c2)c(OCc2cn(Cc3ccc(Br)cc3)nn2)c1`, the IC50 in the data set on MDA-MB-231 is 2.47 µM; with SW480, above 30 µM; in the data set “cells”, 4.99 µM; with A549 it was 5.45 µM; in the data set with HeLa, 4.25 µM; in the data set with SGC-7901 it was 2.29 µM. Further, the logP in “physchem” is 4.23.

In the case of `COc1ccc(C(=O)c2ccc(=O)n(-c3ccccc3C)c2)c(OC(=O)c2ccc(F)cc2)c1`, the concentration for half-maximal inhibition (IC50) in the data set on MDA-MB-231 came to 2.35 µM; in the data set with SW480, 2.78 µM; in the data set “cells” it was 9.64 µM; in the data set on A549, 3.68 µM; in the data set with HeLa, 6.86 µM; with SGC-7901 it was 3.62 µM. Further, the logP in “physchem” worked out at 3.81.

For the compound `COc1ccc(Cn2cc(COc3cc(OC)ccc3C(=O)c3ccc(=O)n(-c4ccccc4C)c3)nn2)cc1`, the IC50 was 0.59 µM in the data set with MDA-MB-231; above 30 µM in the data set with SW480; above 30 µM in “cells”; 1.54 µM with A549; 0.99 µM in the data set on HeLa; 1.28 µM in the data set with SGC-7901. For the same compound, in the data set “physchem”, the logP amounted to 3.79.

Take `C#CCOc1cc(OC)ccc1C(=O)c1ccc(=O)n(-c2ccccc2C)c1`: the 50% inhibitory concentration (IC50) with MDA-MB-231 is above 30 µM; in the data set with SW480, 5.33 µM; in “cells”, 9.08 µM; in the data set with A549, 7.59 µM; in the data set on HeLa, 7.82 µM; in the data set with SGC-7901 it was 6.94 µM.

`COc1ccc(C(=O)c2ccc(=O)n(-c3ccccc3C)c2)c(OCc2cn(Cc3ccc(C)cc3)nn2)c1`: the IC50 in the data set with MDA-MB-231 is 0.49 µM; in the data set with SW480 it was 0.48 µM; in the data set “cells”, above 30 µM; in the data set with A549 it was 0.61 µM; in the data set with HeLa it was 0.38 µM; in the data set with SGC-7901, 5.48 µM. In “physchem”, this compound gave a lipophilicity (logP) of 4.1.

On to `COc1ccc(C(=O)c2ccc(=O)n(-c3ccccc3C)c2)c(OC(=O)c2cc([N+](=O)[O-])cc([N+](=O)[O-])c2)c1`, for which the half-maximal inhibitory concentration (IC50) with MDA-MB-231 is 3.28 µM; in the data set with SW480, 2.75 µM; in “cells”, above 30 µM; with A549, 3.89 µM; with HeLa, 5.33 µM; with SGC-7901, 2.44 µM. For the same compound, the lipophilicity (logP) in the data set “physchem” was 3.88.

For `CCCOC(=O)Oc1cc(OC)ccc1C(=O)c1ccc(=O)n(-c2ccccc2C)c1`, the concentration for half-maximal inhibition (IC50) was 2.11 µM with MDA-MB-231; 5.97 µM with SW480; above 30 µM in the data set “cells”; 6.13 µM in the data set on A549; 7.03 µM in the data set on HeLa; 4.18 µM in the data set with SGC-7901. Also, the logP in the data set “physchem” worked out at 3.31.

As to `COc1ccc(C(=O)c2ccc(=O)n(-c3ccccc3C)c2)c(OCc2cn(Cc3ccc(Cl)cc3Cl)nn2)c1`, the IC50 with MDA-MB-231 came to 1.19 µM; with SW480 it was 2.22 µM; in the data set “cells”, 6.43 µM; in the data set with A549, 2.56 µM; in the data set on HeLa, 3.51 µM; with SGC-7901, 0.41 µM. In addition, the log partition coefficient (logP) in the data set “physchem” was found to be 4.23.

In the case of `COc1ccc(C(=O)c2ccc(=O)n(-c3ccccc3C)c2)c(OCc2cn(Cc3cccc(Br)c3)nn2)c1`, the IC50 was above 30 µM in the data set with MDA-MB-231; 2.32 µM in the data set on SW480; above 30 µM in the data set “cells”; 4.46 µM in the data set on A549; 4.52 µM in the data set on HeLa; 5.68 µM with SGC-7901. In addition, the log partition coefficient (logP) in “physchem” was found to be 4.05.

Take `O=c1[nH]cc(F)c(=O)[nH]1` [FLUOROURACIL]: the concentration for half-maximal inhibition (IC50) with HeLa turned out to be 16.5 µM.
